This passage reports Ki results from patent US10632171B2, “Melanocortin receptor-specific peptides” (Palatin Technologies, Inc., priority 2009, dated 2020).

Molecules are shown by their SMILES. Peptide text beside a SMILES is read from it.

Assay [1] deals with T1, hMC4-R (Homo sapiens (Human), UniProt P32245). Nature of the assay: Competitive inhibition binding assay using [I125]-NDP-α-MSH. The conditions noted are these: averaged; determined using [I125]-NDP-α-MSH (values not marked *); read-out: MC4-R Ki. As to the method:
A competitive inhibition binding assay is performed using membrane homogenates prepared from HEK-293 cells that express recombinant hMC4-R, hMC3-R, or hMC5-R, and from B-16 mouse melanoma cells (containing endogenous MC1-R). In some instances, HEK-293 cells that express recombinant hMC1-R were employed. In the examples that follow, all MC3-R, MC4-R and MC5-R values are for human recombinant receptors. […] Membrane homogenates were incubated with 0.2 nM (for hMC4-R) 0.4 nM (for MC3-R and MC5-R) or 0.1 nM (for mouse B16 MC1-R or hMC1-R) [I^125]-NDP-α-MSH (Perkin Elmer) and increasing concentrations of test peptides of the present invention in buffer containing 25 mM HEPES buffer (pH 7.5) with 100 mM NaCl, 2 mM CaCl2, 2 mM MgCl2, 0.3 mM 1,10-phenanthroline, and 0.2% bovine serum albumin. After incubation for 60 minutes at 37° C., the assay mixture was filtered and the membranes washed three times with ice-cold buffer. Filters were dried and counted in a gamma counter for bound radioactivity. […] Maximal specific binding (100%) was defined as the difference in radioactivity (cpm) bound to cell membranes in the absence and presence of 1 μM NDP-α-MSH. […] Each assay was conducted in triplicate and the actual mean values are described, with results less than 0% reported as 0%. Ki values for test peptides of the present invention were determined using Graph-Pad Prism® curve-fitting software.

In assay [2] the target is T1, hMC4-R. Nature of the assay: Competitive binding assay using Eu-NDP-α-MSH. The conditions noted are these: averaged; determined using Eu-NDP-α-MSH (values marked *); read-out: MC4-R Ki. As to the method: Alternatively, a competitive inhibition binding assay was performed employing Eu-NDP-α-MSH (PerkinElmer Life Sciences catalog No. AD0225) with determination by time-resolved fluorometry (TRF) of the lanthanide chelate. […] After incubation for 90 minutes at 37° C., the reaction was stopped by filtration over AcroWell 96-well filter plates (Pall Life Sciences). The filter plates were washed 4 times with 200 μL of ice-cold phosphate-buffered saline. DELFIA Enhancement solution (PerkinElmer Life Sciences) was added to each well. […] Each assay was conducted in duplicate and mean values were utilized. Ki values were determined by curve-fitting with Graph-Pad Prism® software using a one-site fixed-slope competition binding model.

One may read the Ki as a measure of affinity in units of concentration, obtained from inhibition or displacement.

T1 sequence (P32245 whole entry): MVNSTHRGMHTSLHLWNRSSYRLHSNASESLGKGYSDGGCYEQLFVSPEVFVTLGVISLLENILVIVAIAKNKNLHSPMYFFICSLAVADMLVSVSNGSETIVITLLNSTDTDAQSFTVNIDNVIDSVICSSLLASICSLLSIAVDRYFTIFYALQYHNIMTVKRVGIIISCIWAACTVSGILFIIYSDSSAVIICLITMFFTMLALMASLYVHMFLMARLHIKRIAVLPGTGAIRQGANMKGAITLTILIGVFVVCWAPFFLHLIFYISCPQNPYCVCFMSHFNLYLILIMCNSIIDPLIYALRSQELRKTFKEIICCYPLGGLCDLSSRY

`CC(=O)N[C@@H](CCCNC(=N)N)C(=O)N[C@H]1CC(=O)NCCCC[C@@H](C(N)=O)NC(=O)[C@H](Cc2c[nH]c3ccccc23)NC(=O)[C@H](CCCNC(N)=O)NC(=O)[C@@H](Cc2ccccc2)NC(=O)[C@H](CCCCN)NC1=O` [compound 116, Ac-Arg-cyclo(Asp-Lys- D-Phe-Cit-Trp-Lys)-NH2] (HELM PEPTIDE1{[ac].R.D.K.[dF].[Cit].W.K.[am]}$PEPTIDE1,PEPTIDE1,3:R3-8:R3$$$V2.0): on hMC4-R [1], the inhibition constant (Ki) was found to be 873 nM.
For `CC(=O)N[C@@H](CCCNC(=N)N)C(=O)N[C@H]1CC(=O)NCCCC[C@@H](C(N)=O)NC(=O)[C@H](Cc2c[nH]c3ccccc23)NC(=O)[C@H](CCCNC(=N)N)NC(=O)[C@@H](Cc2ccccc2)NC(=O)[C@@H]2C[C@@H](O)CN2C1=O` [compound 101, Ac-Arg-cyclo(Glu-Hyp- D-Phe-Arg-Trp-Orn)- NH2], on hMC4-R [1], the Ki worked out at 3 nM.
Take `CC(=O)N[C@@H](CCCNC(=N)N)C(=O)N[C@H]1CC(=O)NCCCC[C@@H](C(=O)O)NC(=O)[C@H](Cc2c[nH]c3ccccc23)NC(=O)[C@H](CCCNC(=N)N)NC(=O)[C@@H](Cc2ccccc2)NC(=O)[C@H](C)NC1=O` [compound 52, Ac-Arg-cyclo(Asp-Ala- D-Phe-Arg-Trp-Lys)-OH] (HELM PEPTIDE1{[ac].R.D.A.[dF].R.W.K}$PEPTIDE1,PEPTIDE1,3:R3-8:R3$$$V2.0): the Ki at hMC4-R [2] was found to be 144 nM.
